Drawing on PubChem BioAssay AID1963845 (Molecular Pharmacology Branch, DTP, NCI, 2024), this text covers viability, T/C for five compounds.
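Note: luminescence signal used as surrogate measure of viable cells; spheroids exposed to compounds for seven days before readout; 100% = DMSO vehicle control viability as luminescence relative to vehicle.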

One assay relates to 429239-143-T-J1-PDC complex spheroid viability. Nature of the assay: Anticancer human tumor 429239-143-T-J1-PDC patient-derived small cell lung carcinoma cell line growth inhibition [POLQ]. The conditions noted are these: second compound 0.316 µM; first compound 1 µM; hits give low values. The method in brief:
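PDC + HUVEC + MSC complex spheroids; POLQ inhibitors ± partner drugs; top conc. at/near clinical Cmax, else 10 microM (SN-38 1 microM), half-log dilutions; 37 degrees C, 5% CO2.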
As for `C=CC(=O)N1CCN(c2nc(=O)n(-c3c(C)ccnc3C(C)C)c3nc(-c4c(O)cccc4F)c(F)cc23)C(C)C1` (stereo unspecified) + Cc1cccc(N(C)C(=O)C2C(O)CCN2c2nc(C)cc(C(F)(F)F)c2C#N)c1, the viability, T/C – broadly, the result in the treated group divided by that in the control group, in per cent – is 97.8%.
Take `CC(C)n1c(=O)n(C)c2cnc3cc(F)c(-c4ccc(OCCCN5CCCCC5)nc4)cc3c21` + Cc1cccc(N(C)C(=O)C2C(O)CCN2c2nc(C)cc(C(F)(F)F)c2C#N)c1: the viability, T/C is 92.6%.
Turning to `CCc1cc2c(N3CCc4c(cc(Cn5ccnc5)cc4-c4cn(C)nc4C(F)(F)F)C3=O)cc(C)nc2c(OC)n1` + Cc1cccc(N(C)C(=O)C2C(O)CCN2c2nc(C)cc(C(F)(F)F)c2C#N)c1, the viability, T/C was 78.2%.
Same read-out and setting: with `CCc1cc2c(N3CCc4c(cc(Cn5ccnc5)cc4-c4cn(C)nc4C(F)(F)F)C3=O)ccnc2c(OC)n1` + Cc1cccc(N(C)C(=O)C2C(O)CCN2c2nc(C)cc(C(F)(F)F)c2C#N)c1 the figure was 86%; with `COc1ccc([C@@H](O)c2cc(-c3ncnc4cc(N5CCOCC5)ccc34)c(F)cc2Cl)nn1` + Cc1cccc(N(C)C(=O)C2C(O)CCN2c2nc(C)cc(C(F)(F)F)c2C#N)c1, 90.1%.

The same assay, now with this note: second compound 0.316 µM; first compound 3.16 µM; hits give low values.
On to `C=CC(=O)N1CCN(c2nc(=O)n(-c3c(C)ccnc3C(C)C)c3nc(-c4c(O)cccc4F)c(F)cc23)C(C)C1` (stereo unspecified) + Cc1cccc(N(C)C(=O)C2C(O)CCN2c2nc(C)cc(C(F)(F)F)c2C#N)c1, for which the viability, T/C is 108%.
On to `CC(C)n1c(=O)n(C)c2cnc3cc(F)c(-c4ccc(OCCCN5CCCCC5)nc4)cc3c21` + Cc1cccc(N(C)C(=O)C2C(O)CCN2c2nc(C)cc(C(F)(F)F)c2C#N)c1, for which the viability, T/C was 81.8%.
Regarding `CCc1cc2c(N3CCc4c(cc(Cn5ccnc5)cc4-c4cn(C)nc4C(F)(F)F)C3=O)cc(C)nc2c(OC)n1` + Cc1cccc(N(C)C(=O)C2C(O)CCN2c2nc(C)cc(C(F)(F)F)c2C#N)c1, the viability, T/C is 78.8%.
For `CCc1cc2c(N3CCc4c(cc(Cn5ccnc5)cc4-c4cn(C)nc4C(F)(F)F)C3=O)ccnc2c(OC)n1` + Cc1cccc(N(C)C(=O)C2C(O)CCN2c2nc(C)cc(C(F)(F)F)c2C#N)c1, the viability, T/C is 78.3%.
With `COc1ccc([C@@H](O)c2cc(-c3ncnc4cc(N5CCOCC5)ccc34)c(F)cc2Cl)nn1` + Cc1cccc(N(C)C(=O)C2C(O)CCN2c2nc(C)cc(C(F)(F)F)c2C#N)c1, the viability, T/C was 39.2%.

Staying with this assay, now noted: second compound 0.316 µM; first compound 10 µM; hits give low values.
With `C=CC(=O)N1CCN(c2nc(=O)n(-c3c(C)ccnc3C(C)C)c3nc(-c4c(O)cccc4F)c(F)cc23)C(C)C1` (stereo unspecified) + Cc1cccc(N(C)C(=O)C2C(O)CCN2c2nc(C)cc(C(F)(F)F)c2C#N)c1, the viability, T/C was 116%.
On to `CC(C)n1c(=O)n(C)c2cnc3cc(F)c(-c4ccc(OCCCN5CCCCC5)nc4)cc3c21` + Cc1cccc(N(C)C(=O)C2C(O)CCN2c2nc(C)cc(C(F)(F)F)c2C#N)c1, for which the viability, T/C is 69.7%.
`CCc1cc2c(N3CCc4c(cc(Cn5ccnc5)cc4-c4cn(C)nc4C(F)(F)F)C3=O)cc(C)nc2c(OC)n1` + Cc1cccc(N(C)C(=O)C2C(O)CCN2c2nc(C)cc(C(F)(F)F)c2C#N)c1: the viability, T/C was 42.5%.
Turning to `CCc1cc2c(N3CCc4c(cc(Cn5ccnc5)cc4-c4cn(C)nc4C(F)(F)F)C3=O)ccnc2c(OC)n1` + Cc1cccc(N(C)C(=O)C2C(O)CCN2c2nc(C)cc(C(F)(F)F)c2C#N)c1, the viability, T/C was 56.6%.
`COc1ccc([C@@H](O)c2cc(-c3ncnc4cc(N5CCOCC5)ccc34)c(F)cc2Cl)nn1` + Cc1cccc(N(C)C(=O)C2C(O)CCN2c2nc(C)cc(C(F)(F)F)c2C#N)c1: the viability, T/C was 14.3%.

Still in this assay, the particulars now being: second compound 1 µM; first compound 0.0316 µM; hits give low values.
For `C=CC(=O)N1CCN(c2nc(=O)n(-c3c(C)ccnc3C(C)C)c3nc(-c4c(O)cccc4F)c(F)cc23)C(C)C1` (stereo unspecified) + Cc1cccc(N(C)C(=O)C2C(O)CCN2c2nc(C)cc(C(F)(F)F)c2C#N)c1, the viability, T/C is 88.8%.
Still for that read-out and setting: to `CC(C)n1c(=O)n(C)c2cnc3cc(F)c(-c4ccc(OCCCN5CCCCC5)nc4)cc3c21` + Cc1cccc(N(C)C(=O)C2C(O)CCN2c2nc(C)cc(C(F)(F)F)c2C#N)c1 belongs 81.8%; to `CCc1cc2c(N3CCc4c(cc(Cn5ccnc5)cc4-c4cn(C)nc4C(F)(F)F)C3=O)cc(C)nc2c(OC)n1` + Cc1cccc(N(C)C(=O)C2C(O)CCN2c2nc(C)cc(C(F)(F)F)c2C#N)c1, 108%; to `CCc1cc2c(N3CCc4c(cc(Cn5ccnc5)cc4-c4cn(C)nc4C(F)(F)F)C3=O)ccnc2c(OC)n1` + Cc1cccc(N(C)C(=O)C2C(O)CCN2c2nc(C)cc(C(F)(F)F)c2C#N)c1, 107%.
As to `COc1ccc([C@@H](O)c2cc(-c3ncnc4cc(N5CCOCC5)ccc34)c(F)cc2Cl)nn1` + Cc1cccc(N(C)C(=O)C2C(O)CCN2c2nc(C)cc(C(F)(F)F)c2C#N)c1, the viability, T/C is 105%.

Staying with this assay, now noted: second compound 1 µM; first compound 0.1 µM; hits give low values.
Consider `C=CC(=O)N1CCN(c2nc(=O)n(-c3c(C)ccnc3C(C)C)c3nc(-c4c(O)cccc4F)c(F)cc23)C(C)C1` (stereo unspecified) + Cc1cccc(N(C)C(=O)C2C(O)CCN2c2nc(C)cc(C(F)(F)F)c2C#N)c1, for which the viability, T/C was 93.4%.
In the case of `CC(C)n1c(=O)n(C)c2cnc3cc(F)c(-c4ccc(OCCCN5CCCCC5)nc4)cc3c21` + Cc1cccc(N(C)C(=O)C2C(O)CCN2c2nc(C)cc(C(F)(F)F)c2C#N)c1, the viability, T/C was 95.7%.
On the same count and under the same terms, to `CCc1cc2c(N3CCc4c(cc(Cn5ccnc5)cc4-c4cn(C)nc4C(F)(F)F)C3=O)cc(C)nc2c(OC)n1` + Cc1cccc(N(C)C(=O)C2C(O)CCN2c2nc(C)cc(C(F)(F)F)c2C#N)c1 belongs 96.1%; to `CCc1cc2c(N3CCc4c(cc(Cn5ccnc5)cc4-c4cn(C)nc4C(F)(F)F)C3=O)ccnc2c(OC)n1` + Cc1cccc(N(C)C(=O)C2C(O)CCN2c2nc(C)cc(C(F)(F)F)c2C#N)c1, 95.4%.
Take `COc1ccc([C@@H](O)c2cc(-c3ncnc4cc(N5CCOCC5)ccc34)c(F)cc2Cl)nn1` + Cc1cccc(N(C)C(=O)C2C(O)CCN2c2nc(C)cc(C(F)(F)F)c2C#N)c1: the viability, T/C is 95.9%.

Still in this assay, the particulars now being: second compound 1 µM; first compound 0.316 µM; hits give low values.
Turning to `C=CC(=O)N1CCN(c2nc(=O)n(-c3c(C)ccnc3C(C)C)c3nc(-c4c(O)cccc4F)c(F)cc23)C(C)C1` (stereo unspecified) + Cc1cccc(N(C)C(=O)C2C(O)CCN2c2nc(C)cc(C(F)(F)F)c2C#N)c1, the viability, T/C is 104%.
